Data as given in patent US12139520B2 (priority 2020, dated 2024).
Bridge positions count the residues as written; N and C are the ends. Square brackets hold non-standard residues; d marks the D form. Peptide text beside a SMILES is read from it. Hyp = O=C(O)[C@@H]1C[C@@H](O)CN1; Cit = NC(=O)NCCC[C@H](N)C(=O)O

Key:
hAM1 receptor = hAM1 receptor (Homo sapiens, UniProt O60895+Q16602); test: cAMP assay for in vitro receptor activation, hAM1-R; type: cell-based; conditions: cAMP assay, hAM1 receptor; read-out: hAM1R EC50
Outline: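 cAMP accumulation was measured in a monoclonal cell line stably overexpressing the hAM1 receptor. Frozen aliquots were thawed and plated at 8000 cells/well in DPBS containing 0.05% casein and 0.5 mM IBMX.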

[1] = Physical stability of peptide analogues (Thioflavin T fibrillation); type: physicochemical; conditions: maximum ThT signal normalized between hAMY maximum and buffer background; 40° C., shaking, four days; pH 7 per table title
Outline: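 1 h in 50 mM NaOAc pH 4 / 50 mM NaPi pH 7; + ThT 4 μM final; 40 °C, 700 rpm linear shake 5 min pre-read; ex 450, em 480 nm q10 min × 4 d; LOESS smoothing; max signal normalised to hAMY max vs buffer blank.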

hAMY3 receptor = target: T1, hAMY3 receptor (Homo sapiens, UniProt O60896+P30988); test: cAMP assay for in vitro receptor activation, hAMY3-R; type: cell-based; conditions: cAMP assay, hAMY3 receptor; read-out: hAMY3R EC50
T1 sequence (P30988 25-474): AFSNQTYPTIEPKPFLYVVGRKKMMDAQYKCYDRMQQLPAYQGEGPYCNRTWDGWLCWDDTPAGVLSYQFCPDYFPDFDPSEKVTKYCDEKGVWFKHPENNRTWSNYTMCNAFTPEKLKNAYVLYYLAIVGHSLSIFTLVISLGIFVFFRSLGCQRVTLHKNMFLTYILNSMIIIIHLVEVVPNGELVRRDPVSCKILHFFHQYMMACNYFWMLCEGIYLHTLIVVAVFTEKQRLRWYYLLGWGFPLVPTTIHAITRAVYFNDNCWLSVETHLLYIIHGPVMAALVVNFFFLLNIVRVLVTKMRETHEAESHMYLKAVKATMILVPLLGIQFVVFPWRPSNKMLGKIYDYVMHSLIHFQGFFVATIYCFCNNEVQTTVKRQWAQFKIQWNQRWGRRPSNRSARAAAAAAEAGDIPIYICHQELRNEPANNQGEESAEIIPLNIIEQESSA
T1 sequence (O60896 24-148 partner): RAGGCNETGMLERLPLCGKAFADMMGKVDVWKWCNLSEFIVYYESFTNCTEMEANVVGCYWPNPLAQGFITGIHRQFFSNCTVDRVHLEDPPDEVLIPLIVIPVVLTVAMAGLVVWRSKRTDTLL
Outline: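 Monoclonal cell line stably overexpressing hAMY3 receptor, plated in DPBS with 0.05% casein and 0.5 mM IBMX, was stimulated with graded compound doses for 30 min at room temperature. cAMP accumulation was read by time-resolved FRET one hour after adding detection reagents.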

Chain of hAM1 receptor (Q16602 23-461): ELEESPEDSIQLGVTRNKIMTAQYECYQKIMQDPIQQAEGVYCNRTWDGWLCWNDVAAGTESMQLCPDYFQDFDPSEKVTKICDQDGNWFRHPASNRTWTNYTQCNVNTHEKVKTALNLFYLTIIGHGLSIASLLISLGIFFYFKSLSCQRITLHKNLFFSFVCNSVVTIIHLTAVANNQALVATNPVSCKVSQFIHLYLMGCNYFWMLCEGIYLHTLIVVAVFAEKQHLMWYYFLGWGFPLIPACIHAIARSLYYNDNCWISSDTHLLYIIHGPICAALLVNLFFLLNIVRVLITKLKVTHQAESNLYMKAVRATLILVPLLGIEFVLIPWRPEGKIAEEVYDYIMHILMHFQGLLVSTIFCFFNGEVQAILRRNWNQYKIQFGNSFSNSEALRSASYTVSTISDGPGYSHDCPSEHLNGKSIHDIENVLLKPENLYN
Chain of hAM1 receptor (O60895 43-175 partner): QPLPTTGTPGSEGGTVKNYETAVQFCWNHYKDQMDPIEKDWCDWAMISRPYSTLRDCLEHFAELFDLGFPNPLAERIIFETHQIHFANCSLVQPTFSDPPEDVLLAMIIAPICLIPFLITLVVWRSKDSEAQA

Structure (SMILES) | EC50 (hAM1 receptor) | Max ThT signal (%) [1] | EC50 (hAMY3 receptor)
CC[C@H](C)[C@H](NC(=O)[C@H](CCC(N)=O)NC(=O)[C@H](CC(=O)O)NC(=O)[C@H](C)NC(=O)[C@H](CC(C)C)NC(=O)[C@H](CCCNC(N)=O)NC(=O)[C@H](C)NC(=O)[C@@H](NC(=O)[C@@H](NC(=O)[C@@H]1CSSC[C@H](NC(=O)[C@@H](N)CCCCN)C(=O)N[C@@H](CC(N)=O)C(=O)N[C@@H]([C@@H](C)O)C(=O)N[C@@H](CO)C(=O)N[C@@H]([C@@H](C)O)C(=O)N1)[C@@H](C)O)C(C)C)C(=O)N[C@H](C(=O)N[C@@H](CCC(N)=O)C(=O)N[C@@H](Cc1ccccc1)C(=O)N[C@@H](CO)C(=O)N[C@@H](CC(N)=O)C(=O)N[C@@H](CCCCN)C(=O)N[C@@H](CC(=O)O)C(=O)N[C@@H](CCCCN)C(=O)N[C@@H](C)C(=O)N[C@@H](CCC(N)=O)C(=O)N[C@H](C(=O)N[C@@H](CO)C(=O)N1CCC[C@H]1C(=O)N1CCC[C@H]1C(=O)N[C@H](C(=O)N[C@@H](CCC(=O)O)C(=O)N[C@H](C(=O)NCC(=O)N1CCC[C@H]1C(=O)N[C@@H](CC(N)=O)C(=O)N[C@@H](CO)C(=O)N1C[C@H](O)C[C@H]1C(N)=O)C(C)C)[C@@H](C)O)C(C)C)[C@@H](C)O [compound 244] (H-KCNTSTCTVA[Cit]LADQITQFSNKDKAQVSPPTEVGPNS[Hyp]-NH2; disulfide 2-7) | > 5000 nM | 4.100% | 0.006 nM
CC[C@H](C)[C@H](NC(=O)[C@H](CCC(N)=O)NC(=O)[C@H](Cc1c[nH]cn1)NC(=O)[C@H](C)NC(=O)[C@H](CC(C)C)NC(=O)[C@H](CCCNC(=N)N)NC(=O)[C@H](CCC(N)=O)NC(=O)[C@@H](NC(=O)[C@@H](NC(=O)[C@@H]1CSSC[C@H](NC(=O)CN)C(=O)N[C@@H](CCCNC(=N)N)C(=O)N[C@@H](Cc2c[nH]c3ccccc23)C(=O)NCC(=O)N[C@@H]([C@@H](C)O)C(=O)N1)[C@@H](C)O)C(C)C)C(=O)N[C@@H](Cc1ccc(O)cc1)C(=O)N[C@@H](CCC(N)=O)C(=O)N[C@@H](Cc1ccccc1)C(=O)N[C@H](C(=O)N[C@@H](CC(=O)O)C(=O)N[C@@H](CCCCN)C(=O)N[C@@H](Cc1ccccc1)C(=O)N[C@@H](CCCCN)C(=O)N[C@@H](CC(=O)O)C(=O)N[C@@H](CC(N)=O)C(=O)N[C@H](C(=O)N[C@@H](C)C(=O)N1CCC[C@H]1C(=O)N[C@@H](CCCNC(=N)N)C(=O)N[C@@H](CO)C(=O)N[C@@H](CCCCN)C(=O)N[C@H](C(=O)N[C@@H](CO)C(=O)N1CCC[C@H]1C(=O)N[C@@H](CCC(N)=O)C(=O)N[C@H](C(=O)N1C[C@H](O)C[C@H]1C(N)=O)[C@@H](C)O)[C@@H](C)CC)C(C)C)[C@@H](C)O [compound 171] (H-GCRWGTCTVQRLAHQIYQFTDKFKDNVAPRSKISPQT[Hyp]-NH2; disulfide 2-7; N-terminus assumed) | > 5000 nM | 5.000% | 0.064 nM
CC[C@H](C)[C@H](NC(=O)[C@H](CCC(N)=O)NC(=O)[C@H](Cc1c[nH]cn1)NC(=O)[C@H](C)NC(=O)[C@H](CC(C)C)NC(=O)[C@H](CCCNC(N)=O)NC(=O)[C@H](CCC(N)=O)NC(=O)[C@@H](NC(=O)[C@@H](NC(=O)[C@@H]1CSSC[C@H](NC(=O)[C@@H](N)CCCCN)C(=O)N[C@@H](CC(N)=O)C(=O)N[C@@H]([C@@H](C)O)C(=O)N[C@@H](C)C(=O)N[C@@H]([C@@H](C)O)C(=O)N1)[C@@H](C)O)C(C)C)C(=O)N[C@@H](C)C(=O)N[C@@H](CCC(N)=O)C(=O)N[C@@H](Cc1ccccc1)C(=O)N[C@H](C(=O)N[C@@H](CC(=O)O)C(=O)N[C@@H](CCCCN)C(=O)N[C@@H](CC(=O)O)C(=O)N[C@@H](CCCCN)C(=O)N[C@@H](CC(=O)O)C(=O)N[C@@H](CC(N)=O)C(=O)N[C@H](C(=O)N[C@@H](C)C(=O)N1CCC[C@H]1C(=O)N1CCC[C@H]1C(=O)N[C@H](C(=O)N[C@@H](CC(N)=O)C(=O)N[C@H](C(=O)NCC(=O)N[C@@H](CO)C(=O)N[C@@H](CC(N)=O)C(=O)NCC(=O)N1C[C@H](O)C[C@H]1C(N)=O)C(C)C)[C@@H](C)O)C(C)C)[C@@H](C)O [compound 246] (H-KCNTATCTVQ[Cit]LAHQIAQFTDKDKDNVAPPTNVGSNG[Hyp]-NH2; disulfide 2-7) | > 5000 nM | 4.200% | 0.01 nM

Now from value to compound:

EC50 (hAM1 receptor) | Max ThT signal (%) [1] | EC50 (hAMY3 receptor) | Structure (SMILES)
> 5000 nM | 27.550% | 0.006 nM | CC[C@H](C)[C@H](NC(=O)[C@H](CCC(N)=O)NC(=O)[C@H](Cc1c[nH]cn1)NC(=O)[C@H](C)NC(=O)[C@H](CC(C)C)NC(=O)[C@H](CCCNC(N)=O)NC(=O)[C@H](CCC(N)=O)NC(=O)[C@@H](NC(=O)[C@@H](NC(=O)[C@@H]1CSSC[C@H](NC(=O)[C@@H](N)CCCCN)C(=O)N[C@@H](CC(N)=O)C(=O)N[C@@H]([C@@H](C)O)C(=O)N[C@@H](C)C(=O)N[C@@H]([C@@H](C)O)C(=O)N1)[C@@H](C)O)C(C)C)C(=O)N[C@@H](Cc1ccc(O)cc1)C(=O)N[C@@H](CCC(N)=O)C(=O)N[C@@H](Cc1ccccc1)C(=O)N[C@H](C(=O)N[C@@H](CC(=O)O)C(=O)N[C@@H](CCCCN)C(=O)N[C@@H](CC(=O)O)C(=O)N[C@@H](CCCCN)C(=O)N[C@@H](CC(=O)O)C(=O)N[C@@H](CC(N)=O)C(=O)N[C@H](C(=O)N[C@@H](C)C(=O)N1CCC[C@H]1C(=O)N[C@@H](C)C(=O)N[C@H](C(=O)N[C@@H](CC(N)=O)C(=O)N[C@H](C(=O)NCC(=O)N[C@@H](CO)C(=O)N[C@@H](CC(N)=O)C(=O)NCC(=O)N1C[C@H](O)C[C@H]1C(N)=O)C(C)C)[C@@H](C)O)C(C)C)[C@@H](C)O [compound 252] (H-KCNTATCTVQ[Cit]LAHQIYQFTDKDKDNVAPATNVGSNG[Hyp]-NH2; disulfide 2-7; N-terminus assumed)
> 5000 nM | 19.800% | 0.054 nM | CC[C@H](C)[C@H](NC(=O)[C@H](CCC(N)=O)NC(=O)[C@H](Cc1c[nH]cn1)NC(=O)[C@H](C)NC(=O)[C@H](CC(C)C)NC(=O)[C@H](Cc1c[nH]c2ccccc12)NC(=O)[C@H](CCC(N)=O)NC(=O)[C@@H](NC(=O)[C@@H](NC(=O)[C@@H]1CSSC[C@H](NC(=O)CN)C(=O)N[C@@H](CCCNC(=N)N)C(=O)N[C@@H]([C@@H](C)O)C(=O)NCC(=O)N[C@@H]([C@@H](C)O)C(=O)N1)[C@@H](C)O)C(C)C)C(=O)N[C@@H](Cc1ccc(O)cc1)C(=O)N[C@@H](CCC(N)=O)C(=O)N[C@@H](Cc1ccccc1)C(=O)N[C@H](C(=O)N[C@@H](CC(=O)O)C(=O)N[C@@H](CCCCN)C(=O)N[C@@H](CC(=O)O)C(=O)N[C@@H](CCCCN)C(=O)N[C@@H](CC(=O)O)C(=O)N[C@@H](CC(N)=O)C(=O)N[C@H](C(=O)N[C@@H](C)C(=O)N1CCC[C@H]1C(=O)N[C@@H](CCCNC(=N)N)C(=O)N[C@@H](CO)C(=O)N[C@@H](CC(N)=O)C(=O)N[C@H](C(=O)NCC(=O)N1CCC[C@H]1C(=O)N[C@@H](CCC(N)=O)C(=O)NCC(=O)N1C[C@H](O)C[C@H]1C(N)=O)C(C)C)C(C)C)[C@@H](C)O [compound 342] (H-GCRTGTCTVQWLAHQIYQFTDKDKDNVAPRSNVGPQG[Hyp]-NH2; disulfide 2-7)
> 5000 nM | 26.450% | 0.024 nM | CC[C@H](C)[C@H](NC(=O)[C@H](CC(N)=O)NC(=O)[C@@H](NC(=O)[C@H](CCCNC(=N)N)NC(=O)[C@@H]1CCCN1C(=O)[C@H](C)NC(=O)[C@@H](NC(=O)[C@H](CC(N)=O)NC(=O)[C@H](CC(=O)O)NC(=O)[C@H](CCCCN)NC(=O)[C@H](CC(=O)O)NC(=O)[C@H](CCCCN)NC(=O)[C@H](CC(=O)O)NC(=O)[C@@H](NC(=O)[C@H](Cc1ccccc1)NC(=O)[C@H](CCC(N)=O)NC(=O)[C@H](Cc1ccc(O)cc1)NC(=O)[C@@H](NC(=O)[C@H](CCC(N)=O)NC(=O)[C@H](Cc1c[nH]cn1)NC(=O)[C@H](C)NC(=O)[C@H](CC(C)C)NC(=O)[C@H](CCCNC(N)=O)NC(=O)[C@H](CCC(N)=O)NC(=O)[C@@H](NC(=O)[C@@H](NC(=O)[C@@H]1CSSC[C@H](NC(=O)CN)C(=O)N[C@@H](CCCNC(=N)N)C(=O)N[C@@H]([C@@H](C)O)C(=O)NCC(=O)N[C@@H]([C@@H](C)O)C(=O)N1)[C@@H](C)O)C(C)C)[C@@H](C)CC)[C@@H](C)O)C(C)C)[C@@H](C)O)C(=O)NCC(=O)N1CCC[C@H]1C(=O)N[C@@H](CCC(N)=O)C(=O)NCC(=O)N1C[C@H](O)C[C@H]1C(N)=O [compound 280] (H-GCRTGTCTVQ[Cit]LAHQIYQFTDKDKDNVAPRTNIGPQG[Hyp]-NH2; disulfide 2-7; N-terminus assumed)
